IC50 data for one compound are collected here from patent US7049311B1, “Pyrrolbenzodiazepines” (Spirogen Limited, priority 1998, dated 2006).

For one test, the system named is A2780cisR. Put plainly: Ovarian carcinoma cytotoxicity assay. It counts as cell-based, human. To be noted: Homo sapiens, A2780cisR, 96 h, read-out: IC50 A2780cisR. The gist of the method:
(§1)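 Cells attached overnight, then read 96 hours later by sulphorhodamine B staining of TCA-fixed cells, with absorbance at 540 nm. IC50 taken from concentration versus % absorbance relative to untreated wells; cisR lines are cisplatin-resistant.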

A further test relates to A2780. The test can be described thus: Ovarian carcinoma cytotoxicity assay. It counts as cell-based, human. Particulars: Homo sapiens, A2780, 96 h, read-out: IC50 A2780. The essentials: as §1

Broadly, the IC50 is the midpoint of a concentration-inhibition curve. As for `C=C1C[C@H]2C=Nc3cc(OCCCOc4cc5c(cc4OC)C(=O)N4CC(=C)C[C@H]4C=N5)c(OC)cc3C(=O)N2C1` [UP2001 (80)], the values for the concentration for half-maximal inhibition (IC50) in the test on A2780cisR and in the test on A2780 were 0.024 nM and 0.023 nM, respectively.
